The text below walks through data of patent publication US11072619B2, “Pyrazole[1,5-a] pyrimidine derivatives as kinase JAK inhibitors” (CELON PHARMA S.A., priority 2017, dated 2021).

Assay [1] concerns the target Recombinant kinase JAK1 (Homo sapiens (Human), UniProt P23458). The experiment in a line: In vitro JAK kinase inhibition assay (ADP-Glo), JAK1. It is filed as biochemical. Conditions: 30 μM ATP, peptide IRS-1, averaged. The protocol:
(§1) In Vitro JAK Kinase Inhibition Assay
(§2) The effects of the compounds of the invention were analysed in vitro using kinase JAK inhibition assay described below.
(§3) Tested compounds were dissolved in 100% DMSO, and obtained stock solutions were serially diluted in the reaction buffer (50 mM Tris pH 7.5, 10 mM MgCl2, 0.25 mM EGTA, 0.1 mM Na3VO4, 0.01% Triton X-100, 2.5 mM DTT). Recombinant kinases JAK1 (ProQinase), JAK2, or JAK3 (Carna Biosciences) were diluted in the dilution buffer (50 mM Tris-HCl pH 7.5, 150 mM NaCl, 10% glycerol, 0.05% Triton X-100, 1 mM DTT) to the final concentration 3 ng/μL (JAK1), 0.1 ng/μL (JAK2), or 0.2 ng/μL (JAK3). 5 μL of obtained solution of the compounds and 5 μL of the solution of respective kinases were added to the well of a 96-well plate. To initiate interaction between tested compounds and an enzyme, the plate was incubated for 10 minutes at 25° C. in a Plate-Thermo-Shaker with orbital stirring at 400 rpm. Wells of a negative control contained all reagents as mentioned above with the exception of tested compounds and kinase, and wells of a positive controls contained all reagents as mentioned above with the exception of tested compounds. Enzymatic reaction was initiated by the addition of 15 μL of the following solution: 5× concentrated reaction buffer (50 mM Tris pH 7.5, 10 mM MgCl2, 0.25 mM EGTA, 0.1 mM Na3VO4, 0.01% Triton X-100, 2.5 mM DTT), water, 30 μM ATP and for particular kinases: JAK1—60 μM peptide IRS-1 (Enzo), JAK2 or JAK3—10 μM peptide IGF-1Rtide (Lipopharm). Then the plate was incubated for 1 hour at 25° C. in a Plate-Thermo-Shaker, with orbital stirring at 400 rpm. Detection of ADP formed in the enzymatic reaction was then performed using ADP-Glo Kinase Assay kit (Promega). For this purpose, to the well of the 96-well plate 25 μL of ADP-Glo Reagent were added, and the plate was incubated for 40 minutes at 25° C. in a Plate-Thermo-Shaker with orbital stirring at 400 rpm. Then to the well of the 96-well plate 50 μL of Kinase Detection Reagent were added and the plate was incubated for 30 minutes at 25° C. in a Plate-Thermo-Shaker with orbital stirring at 400 rpm. After incubation, luminescence intensity was measured using Victor×Light luminometer (Perkin Elmer, Inc.).
(§4) On the basis of luminescence measurement in wells containing tested compounds at various concentrations and in control wells, IC50 values were determined. These values were determined with Graph Pad software v. 5.03, by fitting points of the curve using non-linear regression method. Each compound was tested in at least 6 repetitions (6 wells) on two 96-well plates, using at least 3 wells of each control.
(§5) Averaged results of kinases JAK inhibition activity for selected compounds of the present invention are presented below in Table 1.

The target of assay [2] is Recombinant kinase JAK2 (Homo sapiens (Human), UniProt O60674). The experiment in a line: In vitro JAK kinase inhibition assay (ADP-Glo), JAK2. It is filed as biochemical. Conditions: 30 μM ATP, peptide IGF-1Rtide, averaged. The protocol:
as §1, §2
as §3, with “Enzymatic reaction was initiated by the addition of 15 μL of the following solution: 5× concentrated reaction buffer (50 mM Tris pH 7.5, 10 mM MgCl2, 0.25 mM EGTA, 0.1 mM Na3VO4, 0.01% Triton X-100, 2.5 mM DTT), water, 30 μM ATP and for particular kinases: JAK1—60 μM peptide IRS-1 (Enzo), JAK2 or JAK3—10 μM peptide IGF-1Rtide (Lipopharm).” left out
as §4

Assay [3] has as its target Recombinant kinase JAK3 (Homo sapiens (Human), UniProt P52333). The experiment in a line: In vitro JAK kinase inhibition assay (ADP-Glo), JAK3. Format: biochemical. Conditions: 30 μM ATP, peptide IGF-1Rtide, averaged. How it is done:
as §1, §2, §3, §4, §5

Assay [4] deals with TF-1 cells. The experiment in a line: TF-1 cells viability in vitro in the presence of IL-3 (JAK2 activation). It is filed as cell-based. Conditions: Homo sapiens, 5 ng/mL IL-3, 72 hours, ATPlite, read-out: JAK2 IL3 (EC50, inhibition of viability of TF-1 cells). How it is done: (§6) Assay for TF-1 Cells Viability In Vitro
(§7) The effects of the activity of the compounds of the invention were tested in vitro using cells viability assay described below.
Tested compounds were dissolved in 100% DMSO, and obtained stock solutions were serially diluted in OptiMEM medium (Reduced Serum Medium-Thermo Fisher Scientific). […] To a well of the 96-well plate 10 μL of the prepared 10× stock solutions of the compounds. Cells on 96-well plates were incubated with the compounds for 72 hours at 37° C., 5% CO2. Subsequently, viability of the cells was measured using ATPlite kit (Perkin Elmer). For this purpose, 50 μL of lysis buffer (mammalian cell lysis solution) were added to a well of the 96-well plate and the plate was incubated for 10 minutes at 25° C. in a plate thermo-shaker with orbital stirring at 600 rpm. Then to a well of the 96-well plate 50 μL of substrate (substrate solution) were added and incubated for 15 minutes at in dark, in a plate thermo-shaker with orbital stirring at 600 rpm. After incubation time, luminescence intensity in a well was measured using Victor×Light luminometer (Perkin Elmer, Inc.).
On the basis of luminescence intensity measurements in well containing tested compounds at various concentrations and in control wells EC50 values were determined. These values were determined with Graph Pad software v. […] Each compound was tested in at least 6 repetitions (6 wells) on two 96-well plates, using at least 3 wells of each control.

Assay [5] deals with TF-1 cells. The experiment in a line: TF-1 cells viability in vitro in the presence of IL-4 (JAK1/JAK3 activation). As to conditions: for IC50: Homo sapiens, TF-1, 20 ng/mL IL-4, 72 hours, ATPlite, read-out: JAK1,3 IL4 (EC50, inhibition of viability of TF-1 cells); for JAK2/JAK1,3 Ratio: ratio of TF-1 viability EC50 with IL3 to EC50 with IL4. It is filed as cell-based. How it is done:
as §6, §7
Tested compounds were dissolved in 100% DMSO, and obtained stock solutions were serially diluted in OptiMEM medium (Reduced Serum Medium-Thermo Fisher Scientific). TF-1 cells (DSMZ no.: ACC 334) in culture medium (80% RPMI 1640+20% FBS) ad in the presence of 5 ng/mL IL-3 or 20 ng/mL IL-4 were deposited on 96-well plates in the volume of 90 μl per well, 10 thousands of cells per well. To a well of the 96-well plate 10 μL of the prepared 10× stock solutions of the compounds. Cells on 96-well plates were incubated with the compounds for 72 hours at 37° C., 5% CO2. Subsequently, viability of the cells was measured using ATPlite kit (Perkin Elmer). For this purpose, 50 μL of lysis buffer (mammalian cell lysis solution) were added to a well of the 96-well plate and the plate was incubated for 10 minutes at 25° C. in a plate thermo-shaker with orbital stirring at 600 rpm. Then to a well of the 96-well plate 50 μL of substrate (substrate solution) were added and incubated for 15 minutes at in dark, in a plate thermo-shaker with orbital stirring at 600 rpm. After incubation time, luminescence intensity in a well was measured using Victor×Light luminometer (Perkin Elmer, Inc.).
On the basis of luminescence intensity measurements in well containing tested compounds at various concentrations and in control wells EC50 values were determined. These values were determined with Graph Pad software v. 5.03, by fitting points of the curve using non-linear regression method. Each compound was tested in at least 6 repetitions (6 wells) on two 96-well plates, using at least 3 wells of each control.

Chain of Recombinant kinase JAK2 (O60674 whole entry): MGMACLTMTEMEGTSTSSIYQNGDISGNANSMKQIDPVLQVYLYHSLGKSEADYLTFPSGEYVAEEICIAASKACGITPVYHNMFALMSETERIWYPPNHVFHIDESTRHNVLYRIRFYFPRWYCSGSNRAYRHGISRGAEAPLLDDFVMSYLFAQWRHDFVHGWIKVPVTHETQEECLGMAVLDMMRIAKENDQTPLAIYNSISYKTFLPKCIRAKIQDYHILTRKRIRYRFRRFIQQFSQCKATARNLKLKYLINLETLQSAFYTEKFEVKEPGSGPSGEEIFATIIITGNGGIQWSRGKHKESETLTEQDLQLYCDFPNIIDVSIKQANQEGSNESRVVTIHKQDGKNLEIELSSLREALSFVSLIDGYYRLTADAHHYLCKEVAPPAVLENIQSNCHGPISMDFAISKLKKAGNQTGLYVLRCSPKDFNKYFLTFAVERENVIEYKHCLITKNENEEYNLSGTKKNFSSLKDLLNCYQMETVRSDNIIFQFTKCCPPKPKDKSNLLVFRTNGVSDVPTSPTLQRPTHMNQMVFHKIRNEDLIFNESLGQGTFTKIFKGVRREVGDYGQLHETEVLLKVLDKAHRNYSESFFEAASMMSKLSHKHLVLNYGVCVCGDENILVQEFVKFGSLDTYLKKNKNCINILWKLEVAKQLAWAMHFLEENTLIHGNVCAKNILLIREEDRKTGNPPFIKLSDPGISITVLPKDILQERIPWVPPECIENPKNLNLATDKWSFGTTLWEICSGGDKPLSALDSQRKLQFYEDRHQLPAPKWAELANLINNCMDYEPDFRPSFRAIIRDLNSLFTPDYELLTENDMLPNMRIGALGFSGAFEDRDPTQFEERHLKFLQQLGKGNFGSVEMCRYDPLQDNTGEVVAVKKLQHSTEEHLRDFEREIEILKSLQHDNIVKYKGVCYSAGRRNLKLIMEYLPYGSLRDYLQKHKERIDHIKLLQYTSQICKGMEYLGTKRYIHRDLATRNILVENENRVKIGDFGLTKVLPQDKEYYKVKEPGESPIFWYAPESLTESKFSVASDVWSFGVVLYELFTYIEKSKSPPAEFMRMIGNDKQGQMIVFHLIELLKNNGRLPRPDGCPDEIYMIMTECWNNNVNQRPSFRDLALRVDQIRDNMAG
Chain of Recombinant kinase JAK3 (P52333 whole entry): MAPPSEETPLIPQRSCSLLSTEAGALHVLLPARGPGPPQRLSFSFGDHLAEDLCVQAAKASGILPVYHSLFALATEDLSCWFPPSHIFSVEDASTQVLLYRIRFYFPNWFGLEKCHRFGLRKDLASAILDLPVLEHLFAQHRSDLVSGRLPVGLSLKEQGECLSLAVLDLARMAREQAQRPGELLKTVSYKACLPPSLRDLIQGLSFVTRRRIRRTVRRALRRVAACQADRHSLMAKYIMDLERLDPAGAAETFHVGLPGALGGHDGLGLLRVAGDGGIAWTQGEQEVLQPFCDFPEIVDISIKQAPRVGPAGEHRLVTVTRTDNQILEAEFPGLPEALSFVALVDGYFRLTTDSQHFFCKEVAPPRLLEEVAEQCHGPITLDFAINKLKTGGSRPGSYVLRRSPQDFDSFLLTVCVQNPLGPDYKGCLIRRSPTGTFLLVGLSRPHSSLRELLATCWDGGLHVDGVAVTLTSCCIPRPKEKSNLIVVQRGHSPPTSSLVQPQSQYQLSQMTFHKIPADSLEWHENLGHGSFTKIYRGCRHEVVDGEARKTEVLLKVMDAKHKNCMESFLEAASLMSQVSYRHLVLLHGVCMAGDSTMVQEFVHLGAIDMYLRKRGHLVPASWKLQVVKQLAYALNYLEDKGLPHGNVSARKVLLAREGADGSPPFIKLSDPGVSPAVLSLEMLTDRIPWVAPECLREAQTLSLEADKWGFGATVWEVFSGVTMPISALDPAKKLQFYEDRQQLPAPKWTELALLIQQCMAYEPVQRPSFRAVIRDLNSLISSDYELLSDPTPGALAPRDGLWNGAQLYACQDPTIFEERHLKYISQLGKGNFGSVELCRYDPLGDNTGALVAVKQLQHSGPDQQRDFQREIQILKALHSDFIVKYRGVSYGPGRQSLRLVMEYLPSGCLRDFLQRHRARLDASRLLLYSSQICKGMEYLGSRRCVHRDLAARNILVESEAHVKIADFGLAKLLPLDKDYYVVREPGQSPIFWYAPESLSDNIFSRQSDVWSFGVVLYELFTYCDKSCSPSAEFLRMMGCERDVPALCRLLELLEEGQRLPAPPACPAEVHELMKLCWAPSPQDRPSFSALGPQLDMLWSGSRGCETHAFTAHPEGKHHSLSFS
Chain of Recombinant kinase JAK1 (P23458 whole entry): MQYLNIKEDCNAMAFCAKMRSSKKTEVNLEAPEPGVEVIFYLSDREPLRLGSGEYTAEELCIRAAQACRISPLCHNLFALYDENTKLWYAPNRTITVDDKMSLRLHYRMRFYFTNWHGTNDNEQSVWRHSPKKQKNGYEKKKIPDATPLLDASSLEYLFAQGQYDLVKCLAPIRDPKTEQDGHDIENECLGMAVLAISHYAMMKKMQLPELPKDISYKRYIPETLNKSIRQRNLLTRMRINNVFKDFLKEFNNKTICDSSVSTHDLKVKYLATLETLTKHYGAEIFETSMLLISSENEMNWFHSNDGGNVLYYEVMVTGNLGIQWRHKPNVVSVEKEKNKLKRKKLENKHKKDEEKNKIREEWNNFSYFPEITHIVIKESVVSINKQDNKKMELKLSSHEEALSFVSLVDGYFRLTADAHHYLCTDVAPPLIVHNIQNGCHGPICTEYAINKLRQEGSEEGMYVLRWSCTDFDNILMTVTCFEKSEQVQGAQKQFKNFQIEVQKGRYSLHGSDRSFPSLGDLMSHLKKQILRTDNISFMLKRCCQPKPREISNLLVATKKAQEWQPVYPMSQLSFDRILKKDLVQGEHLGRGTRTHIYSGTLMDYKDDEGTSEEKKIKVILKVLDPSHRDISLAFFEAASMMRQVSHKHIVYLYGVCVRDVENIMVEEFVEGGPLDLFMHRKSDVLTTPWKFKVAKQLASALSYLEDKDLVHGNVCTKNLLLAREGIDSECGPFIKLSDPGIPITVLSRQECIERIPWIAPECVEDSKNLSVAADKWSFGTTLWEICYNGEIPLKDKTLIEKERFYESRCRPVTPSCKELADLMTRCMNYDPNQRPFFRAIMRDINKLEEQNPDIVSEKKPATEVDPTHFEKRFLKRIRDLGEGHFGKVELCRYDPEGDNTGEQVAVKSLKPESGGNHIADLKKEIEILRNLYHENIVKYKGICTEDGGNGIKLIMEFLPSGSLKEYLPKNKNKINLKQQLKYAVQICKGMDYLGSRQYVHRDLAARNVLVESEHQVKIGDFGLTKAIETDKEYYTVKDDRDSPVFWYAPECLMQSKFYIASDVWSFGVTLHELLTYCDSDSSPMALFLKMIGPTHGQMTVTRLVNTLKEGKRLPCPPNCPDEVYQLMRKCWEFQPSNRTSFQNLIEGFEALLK

In the case of `COc1ccc(F)c(-c2cc3ncc(C(N)=O)c(N[C@@H]4CCN(c5ccc(C#N)nn5)CC4(C)C)n3n2)c1` [Example 2, (R)-7-((1-(6-Cyanopyridazin-3-yl)-3,3-dimethylpiperidin-4-yl)amino)-2-(2-fluoro-5-methoxyphenyl)pyrazolo[1,5-a]pyrimidine-6-carboxamide], the IC50 in assay [1] is 3.74 nM; in assay [2] it was 59.3 nM; in assay [3] it was 3.77 nM; in assay [4], 1200 nM; in assay [5], 242 nM. Moreover, the “JAK2/JAK1,3 Ratio” value in assay [5] came to 5.
As for `CC1(C)CN(c2ccc(C#N)nn2)CC[C@H]1Nc1c(C(N)=O)cnc2cc(-c3cccnc3)nn12` [Example 3, (R)-7-((1-(6-Cyanopyridazin-3-yl)-3,3-dimethylpiperidin-4-yl)amino)-2-(pyridin-3-yl)pyrazolo[1,5-a]pyrimidine-6-carboxamide], the IC50 was determined as 4.47 nM in assay [1], 31.1 nM in assay [2] and 1.58 nM in assay [3].
On to `COc1ccc(-c2cc3ncc(C(N)=O)c(N[C@@H]4CCN(c5ccc(C#N)nn5)CC4(C)C)n3n2)cc1` [Example 1, (R)-7-((1-(6-Cyanopyridazin-3-yl)-3,3-dimethylpiperidin-4-yl)amino)-2-(4-methoxy-phenyl)pyrazolo[1,5-a]pyrimidine-6-carboxamide], for which the IC50 in assay [1] turned out to be 1.8 nM; in assay [2], 19 nM; in assay [3] it was 1.2 nM; in assay [4], 837 nM; in assay [5], 350 nM. Also, in assay [5], the “JAK2/JAK1,3 Ratio” value was 2.4.
On to `COc1ncc(-c2cc3ncc(C(N)=O)c(N[C@@H]4CCN(c5ccc(C#N)nn5)CC4(C)C)n3n2)cn1` [Example 8, (R)-7-((1-(6-Cyanopyridazin-3-yl)-3,3-dimethylpiperidin-4-yl)amino)-2-(2-methoxy-pyrimidin-5-yl)pyrazolo[1,5-a]pyrimidine-6-carboxamide], for which the IC50 in assay [1] was determined as 8.54 nM; in assay [2], 26.8 nM; in assay [3], 2.24 nM; in assay [4] it was 2020 nM; in assay [5], 203 nM. Further, the “JAK2/JAK1,3 Ratio” value in assay [5] turned out to be 10.
With `CCOc1ncc(-c2cc3ncc(C(N)=O)c(N[C@@H]4CCN(c5ccc(C#N)nn5)CC4(C)C)n3n2)cn1` [Example 9, (R)-7-((1-(6-Cyanopyridazin-3-yl)-3,3-dimethylpiperidin-4-yl)amino)-2-(2-ethoxy-pyrimidin-5-yl)pyrazolo[1,5-a]pyrimidine-6-carboxamide], the IC50 in assay [1] came to 47.5 nM; in assay [2], 89.6 nM; in assay [3] it was 18.8 nM.
`CC1(C)CN(c2ccc(C#N)nn2)CC[C@H]1Nc1c(C(N)=O)cnc2cc(-c3ccc(F)nc3)nn12` [Example 10, (R)-7-((1-(6-Cyanopyridazin-3-yl)-3,3-dimethylpiperidin-4-yl)amino)-2-(6-fluoro-pyridin-3-yl)pyrazolo[1,5-a]pyrimidine-6-carboxamide]: the IC50 was 2.37 nM in assay [1]; 12.8 nM in assay [2]; 0.6 nM in assay [3]; 1280 nM in assay [4]; 112 nM in assay [5]. Also, in assay [5], the “JAK2/JAK1,3 Ratio” value is given as 11.5.
As to `CC1(C)CN(c2ccc(C#N)nn2)CC[C@H]1Nc1c(C(N)=O)cnc2cc(-c3ccc(N)nc3)nn12` [Example 6, (R)-2-(6-Aminopyridin-3-yl)-7-((1-(6-cyanopyridazin-3-yl)-3,3-dimethylpiperidin-4-yl)amino)pyrazolo[1,5-a]pyrimidine-6-carboxamide], the IC50 in assay [1] worked out at 0.38 nM; in assay [2] it was 2.98 nM; in assay [3] it was 0.16 nM; in assay [4], 3330 nM; in assay [5] it was 361 nM. Besides, the “JAK2/JAK1,3 Ratio” value in assay [5] was 9.2.
Consider `CCOc1ccc(-c2cc3ncc(C(N)=O)c(N[C@@H]4CCN(c5ccc(C#N)nn5)CC4(C)C)n3n2)cn1` [Example 5, (R)-7-((1-(6-Cyanopyridazin-3-yl)-3,3-dimethylpiperidin-4-yl)amino)-2-(6-ethoxy-pyridin-3-yl)pyrazolo[1,5-a]pyridimine-6-carboxamide], for which the IC50 in assay [1] turned out to be 8.08 nM; in assay [2] it was 34.4 nM; in assay [3] it was 1.8 nM.
